Measured values taken from patent US6947790B2, “Neurocognitive function EEG measurement method and system” (priority 2000, dated 2005).
Read-outs that look alike come from different tables or passages of the source.

Key:
[1] = test system: healthy adults; assay: Experiment 1: n-back working memory task performance; assay type: in vivo, human; conditions: for Accuracy in working memory task vs placebo / Reaction time in working memory task vs placebo: low load and high load tasks
Excerpt: Subjects performed two difficulty levels of a continuous performance, n-back working memory task, versions of which we have employed in many other EEG studies. In this task, subjects were required to compare the spatial location of the current stimulus with that of one presented previously. Briefly, single capital letter stimuli, drawn randomly from a set of twelve, were presented for 200 msec once every 4.5 sec on a computer monitor. At 1.3 sec prior to stimulus onset, a warning cue (a small “x”) appeared in the center of the screen for 200 msec. The letter stimulus occurred 1.3 sec after the cue in one of twelve possible locations on the monitor. The identity of the letter and its spatial position varied randomly from trial to trial. A small fixation dot was continuously present at the center of the screen. In a low load version of the task, subjects were required to match the position of the current stimulus with the position of the very first stimulus presented in the block. In a high load version of the task, subjects compared the current stimulus with that presented two trials previously. In this version subjects were required to remember two positions (and their sequential order) for the duration of two trials (nine seconds), and to update that information on each subsequent trial. In both versions of the task, stimuli were presented in blocks of 53 trials (the first three trials were warm-up trials and were discarded from analysis). Matches occurred randomly on 50% of the trials. Subjects were instructed to respond as quickly and as accurately as possible.
(§1) Each subject participated in […] sessions. The first session was a practice session in which subjects learned to perform the working memory tasks. After training, all subjects participated in 4 sessions, separated by at least one week. […] The four drug sessions were conducted according to a double blind, placebo-controlled, randomized, counterbalanced, crossover design. In each session, subjects consumed two pills (unmarked gelatin capsules) and a mixed drink. […] The pills were given with a 500 cc drink containing either 0.88 g/kg 95% ethanol mixed in fruit juice (adequate to produce an average peak blood alcohol content (BAC) of 0.08), or containing 495 cc of fruit juice with 5 cc of alcohol floated on top to mimic the smell and taste of the treatment drink.
(§2) Each drug session involved a baseline recording before drug administration. This was followed by four post-drug recording intervals, each lasting approximately 40 minutes. The first interval began 0.5 hrs after drug ingestion; the remaining three intervals occurred hourly thereafter. A scientist not otherwise involved in the experiment administered a Breathalyzer test at the beginning of each interval. Subjects also completed the Karolinska and Stanford sleepiness scales at each test period.
(§3) EEG was continuously recorded from 28 scalp electrodes using a digitally linked-mastoids reference. EOG was recorded from electrodes placed above and below one eye, and at the other canthi of each eye. Physiological signals were band-pass filtered at 0.01 to 100 Hz and sampled at 256 Hz. Automated artifact detection was followed by application of adaptive eye contaminant removal filters. The data were then visually inspected and data segments containing possible residual artifacts were eliminated from subsequent analyses. To examine the effects of the pharmacological interventions on individual EEG or behavioral variables, univariate repeated measures analyses of variance (ANOVAs) were used to compare data from each of the three treatment conditions with the placebo condition.

[2] = test system: healthy adults; assay: Experiment 2: Neurocognitive Function Change (NCFC) index; assay type: in vivo, human; conditions: for NCFC index change from pre-medication baseline: 16 subjects, t1-t4
Excerpt: In this hybrid approach, multiple if-then rules gleaned from expert knowledge are applied to data to produce many low-level decisions about the direction of a change between two states. These local decisions are made with respect to single data parameters and the output of these rule-based functions serve as the inputs to a combinatorial network that in turn produces a single summary index of the direction and magnitude of change of neurocognitive function from a baseline state to a test state. As with a knowledgeable human expert assessing an ambiguous problem, decisions about the direction and severity of a change are based on consideration of a variety of pieces of diagnostic evidence, no one of which is central to the overall decision.
The output from the algorithm is the composite of three sub indices. The Behavioral Performance sub index incorporates measures of psychomotor speed and accuracy during task performance. The Neurophysiological Cognitive sub index incorporates attention-related EEG variables recorded during task performance (e.g. parameters of attention-related ERP components such as P300 and spectral measures of task load-related EEG modulation). The Neurophysiological Alertness sub index incorporates alertness-related physiological variables (e.g. measures of low frequency EEG activity and slow, rolling eye movement activity) recorded during passive resting conditions. The composite Neurocognitive Function Change (NCFC) index provides a summary score indicating direction and degree of change in neurocognitive status from a baseline state. In FIG. 6, each time point reflects change from the pre-medication baseline at t0 . […] In addition to the summary NCFC score presented in FIG. 6, consideration of the output of the sub indices can also provide specific information concerning the manner in which neurocognitive function has changed from baseline. […]

[3] = test system: healthy adults; assay: Experiment 1: subjective sleepiness ratings (Karolinska Sleepiness Scale); assay type: in vivo, human; conditions: 50 mg diphenhydramine, 200-mg caffeine or 0.88 g/kg ethanol, four post-treatment intervals
Method: as §1, §2

[4] = test system: healthy adults; conditions: for Parietal alpha during task performance vs placebo: both task conditions; for Delta band power during resting conditions vs placebo / Theta band power during resting conditions vs placebo: both resting conditions
Method: as §2, §3
For neurophysiological features, average power was extracted from individual spectral bands at individual electrode sites, and then compared across test conditions. Decisions as to which parameters to extract from the spectra were based on the results of prior studies. For the task related EEG, past studies indicate that the frontal midline theta rhythm and the parietal alpha rhythm are sensitive to variations in the attentional demands of tasks, and, in particular, to the increase in difficulty in the working memory tasks employed here. For the EEG recorded under passive resting conditions, past studies indicate that activity in the delta and theta bands at posterior sites, and the alpha rhythm measured over the occipital region, are highly sensitive to variations in alertness and arousal. Each of the individual features was compared between placebo and each drug condition in univariate ANOVAs with repeated measures.

[5] = average
Method: as §1, §2

[6] = test system: children with ADHD; assay: Experiment 9: EEG and ERP; assay type: in vivo, human
Method: EEG and behavioral data were collected while the children performed low load and high load versions of the spatial WM task described above. […] Participants were tested on each of three occasions at the same time of day with a week between sessions. The first occasion was an orientation and training session in which subjects learned and practiced the tasks until performance reached asymptote. On the other occasions they were tested either while medicated or while abstaining from their normal dose of medication, with order of treatment counterbalanced across subjects. A scientist not otherwise involved with the study maintained the schedule of medication and no-medication days so that the research assistant performing the testing and preliminary analyses was blind to medication status. Data from the orientation day was not included in formal analyses. On the other days subjects first performed a single 23-trial block of each of the task conditions as a warm-up procedure. They then performed 4 more 23-trial blocks of each test version in randomized order. […]
In each session, multi-channel EEG was recorded from multiple “10-10 System” scalp locations (bandpass 0.1-100 Hz, 256 Hz sampling rate, linked mastoid reference) using a custom-made electrode cap. EOG was recorded from above and below the left eye, and from outer canthus of each eye. […]

[7] = test system: children with ADHD; assay: Experiment 9: spatial WM task performance; assay type: in vivo, human; conditions: medicated vs unmedicated state; Dexedrine 20 mg, methylphenidate 10 mg
Excerpt: Experiment. Participants (a total of N=14, evenly divided between boys and girls) were referred to this study by local ADHD specialists. All participants had been diagnosed with the combined subtype of ADHD and were currently undergoing treatment with stimulant medication. Inclusion criteria include age 8-12 years, no mental retardation or neurological impairment, and full-scale IQ in the normal range as measured by the WISC-III (Wechsler, 1991). Participants were paid $10/hour for their participation, and were reimbursed for transportation costs. To increase motivation, the children were also rewarded with toys for good performance.
EEG and behavioral data were collected while the children performed low load and high load versions of the spatial WM task described above. […] Participants were tested on each of three occasions at the same time of day with a week between sessions. The first occasion was an orientation and training session in which subjects learned and practiced the tasks until performance reached asymptote. On the other occasions they were tested either while medicated or while abstaining from their normal dose of medication, with order of treatment counterbalanced across subjects. […]

[8] = test system: healthy elderly subjects; assay: Experiment 8: resting and task-related EEG and ERP in elderly; assay type: in vivo, human
[9] = test system: healthy elderly subjects; assay: Experiment 8: subjective sleepiness in elderly (Karolinska sleepiness scale)
[10] = test system: healthy elderly subjects; assay: Experiment 8: WM and ITM task performance in elderly; assay type: in vivo, human

SMILES: Cn1c(=O)c2c(ncn2C)n(C)c1=O [caffeine]
- Accuracy in working memory task vs placebo [1]: No significant behavioral differences
- Reaction time in working memory task vs placebo [1]: No significant behavioral differences
- NCFC index change from pre-medication baseline [2]: little change from baseline
- Subjective sleepiness relative to placebo [3]: did not produce subjective sleepiness ratings significantly different from placebo
- Resting EEG data relative to placebo [4]: did not produce significant differences in resting EEG data relative to placebo
- Direction of significant (p < .05) change in spectral power (vs. placebo): Oz alpha ([4]; Resting EEG Eyes Closed): ▬
- Direction of significant (p < .05) change in spectral power (vs. placebo): Pz delta ([4]; Resting EEG Eyes Closed): ▬
- Direction of significant (p < .05) change in spectral power (vs. placebo): Pz theta ([4]; Resting EEG Eyes Closed): ▬
- Direction of significant (p < .05) change in spectral power (vs. placebo): Oz alpha ([4]; Resting EEG Eyes Open): ▬
- Direction of significant (p < .05) change in spectral power (vs. placebo): Pz delta ([4]; Resting EEG Eyes Open): ▬
- Direction of significant (p < .05) change in spectral power (vs. placebo): Pz theta ([4]; Resting EEG Eyes Open): ▬
- Direction of significant (p < .05) change in spectral power (vs. placebo): Pz alpha ([4]; Task EEG High Load): ▾
- Direction of significant (p < .05) change in spectral power (vs. placebo): aFz theta ([4]; Task EEG High Load): ▬
- Direction of significant (p < .05) change in spectral power (vs. placebo): Pz alpha ([4]; Task EEG Low Load): ▾
- Direction of significant (p < .05) change in spectral power (vs. placebo): aFz theta ([4]; Task EEG Low Load): ▬
- Parietal alpha during task performance vs placebo [4]: significant reduction in alpha band power at parietal sites

SMILES: CCO [alcohol, ethanol]
- Accuracy in working memory task vs placebo [1]: no significant main effects
- Reaction time in working memory task vs placebo [1]: slightly faster in the high load task, and slightly slower in the low load task
- NCFC index change from pre-medication baseline [2]: similar, though less extreme, pattern of impairment
- NCFC sub index most affected ([2]; in vivo): relative greater effect on the Neurophysiological Attention sub index
- Subjective sleepiness relative to placebo [3]: significant increase in subjective sleepiness relative to placebo at the 1.5-2 hr, 2.5-3 hr and 3.5-4 hr post-treatment intervals
- peak BAC ([5]; first post-treatment interval): 0.08
- BAC ([5]; last post-treatment interval): 0.03
- Frontal midline theta rhythm during task performance vs placebo [4]: increased in the amplitude
- Direction of significant (p < .05) change in spectral power (vs. placebo): Oz alpha ([4]; Resting EEG Eyes Closed): ▬
- Direction of significant (p < .05) change in spectral power (vs. placebo): Pz delta ([4]; Resting EEG Eyes Closed): ▴
- Direction of significant (p < .05) change in spectral power (vs. placebo): Pz theta ([4]; Resting EEG Eyes Closed): ▴
- Direction of significant (p < .05) change in spectral power (vs. placebo): Oz alpha ([4]; Resting EEG Eyes Open): ▬
- Direction of significant (p < .05) change in spectral power (vs. placebo): Pz delta ([4]; Resting EEG Eyes Open): ▴
- Direction of significant (p < .05) change in spectral power (vs. placebo): Pz theta ([4]; Resting EEG Eyes Open): ▴
- Direction of significant (p < .05) change in spectral power (vs. placebo): Pz alpha ([4]; Task EEG High Load): ▴
- Direction of significant (p < .05) change in spectral power (vs. placebo): aFz theta ([4]; Task EEG High Load): ▴
- Direction of significant (p < .05) change in spectral power (vs. placebo): Pz alpha ([4]; Task EEG Low Load): ▴
- Direction of significant (p < .05) change in spectral power (vs. placebo): aFz theta ([4]; Task EEG Low Load): ▴
- Delta band power during resting conditions vs placebo [4]: increased the power
- Theta band power during resting conditions vs placebo [4]: increased the power
- Parietal alpha during task performance vs placebo [4]: increased in the amplitude

SMILES: C[C@H](N)Cc1ccccc1 [Dexedrine]
- Alpha rhythm, high load vs low load, in an individual subject ([6]; Dexedrine 20 mg): larger difficulty-related differences
- Working memory task performance in an individual subject [7]: markedly better in the medicated state

SMILES: COC(=O)C(c1ccccc1)C1CCCCN1 (stereo not drawn) [methylphenidate]
- P300 amplitude in an individual subject ([6]; methylphenidate 10 mg): larger in the medicated condition
- Working memory task performance in an individual subject [7]: markedly better in the medicated state

SMILES: CN(C)CCOC(c1ccccc1)c1ccccc1 [diphenhydramine]
- Amplitude of posterior P200 in ITM task [8]: larger after diphenhydramine ingestion than after placebo ingestion
- N160 and P350 ERP in WM task ([8]; low and high load tasks): significantly smaller following diphenhydramine ingestion than placebo
- Resting EEG delta and theta power ([8]; posterior regions): increase in power in the delta and theta bands over posterior regions
- Accuracy in working memory task vs placebo [1]: less accurately
- Reaction time in working memory task vs placebo [1]: significantly more slowly
- Time of nadir of task performance ([1]; post drug, third post-ingestion interval): 2.5 to 3 h
- Time of greatest subjective sleepiness ([9]; after ingestion): 2.5 h
- Subjective sleepiness vs placebo ([9]; elderly, 50 mg): significantly sleepier
- Alpha band power, eyes-closed resting condition vs placebo [4]: attenuation of power in the alpha band in the eyes-closed resting condition
- Alpha band power, eyes-open resting condition vs placebo [4]: no significant change in power during the eyes-open resting condition
- Frontal midline theta rhythm during task performance vs placebo [4]: reduction in power for the frontal midline theta rhythm in the high load task only
- Delta band power during resting conditions vs placebo [4]: increase in power in the delta
- Theta band power during resting conditions vs placebo [4]: trend towards increasing
- Slow eye movement activity during resting conditions ([4]; discussion): increase in the incidence of slow eye movement activity
- ITM task RT and word recognition accuracy [10]: did not show significant effects of diphenhydramine
- WM task performance [10]: did not significantly affect task performance
